Starred links: 1 amine or outer side, 2 acyl side, 3 side chain; linkers in the order of their positions; H or OH if unused. Positions of bridges follow the written chain, without caps; N, C: chain ends. Non-standard residues stand in square brackets, D forms with d. Residues, ends and D or L forms follow the SMILES beside them. *: point of attachment. hPhe(3,5-F2-4-CF3) = N[C@@H](CCc1cc(F)c(C(F)(F)F)c(F)c1)C(=O)O; hPhe(3-Cl-4-CF3) = N[C@@H](CCc1ccc(C(F)(F)F)c(Cl)c1)C(=O)O; NMePhe(4-CF3) = CN[C@@H](Cc1ccc(C(F)(F)F)cc1)C(=O)O; 3Oxa8azabicyclo(3.2.1)octane = C1CC2COCC1N2*; NMeAbu(4,4,4-F3) = CN[C@@H](CC(F)(F)F)C(=O)O; NMePhe(4-Me) = CN[C@@H](Cc1ccc(C)cc1)C(=O)O; X41 = O=C([C@H](Cc1cccc(I)c1F)N[*:1])[*:2]; X53 = O=C([C@H](Cc1cccc(F)c1F)N[*:1])[*:2]; Phe(3-I) = N[C@@H](Cc1cccc(I)c1)C(=O)O; Pro(4,4-F2) = O=C(O)[C@@H]1CC(F)(F)CN1; NMeY = CN[C@@H](Cc1ccc(O)cc1)C(=O)O; NMeCha = CN[C@@H](CC1CCCCC1)C(=O)O; NMeChg = CN[C@H](C(=O)O)C1CCCCC1; NMeI = CC[C@H](C)[C@H](NC)C(=O)O; NMeD = CN[C@@H](CC(=O)O)C(=O)O; NMeL = CN[C@@H](CC(C)C)C(=O)O; Oxazolidin(3-yl) = C1CN(*)CO1; NMeAbu = CC[C@H](NC)C(=O)O; NMeA = CN[C@@H](C)C(=O)O; NMeAib = CNC(C)(C)C(=O)O; Nle = CCCC[C@H](N)C(=O)O; Piperidide = C1CCN(*)CC1; Pra = C#CC[C@H](N)C(=O)O; Pyrrolidide = C1CCN(*)C1; Ac5c = NC1(C(=O)O)CCCC1; Aze = O=C(O)[C@@H]1CCN1; Sar = CNCC(=O)O
Biological target: T1, Kras and SOS1 (biotin-tagged human Kras loaded with GDP, His-tagged human SOS1) (Homo sapiens, UniProt P01116, G12D)
T1 construct: made in house; host or cells: E. coli (stated for Kras only)
T1 sequence (P01116 1-188 isoform P01116-2 G12D): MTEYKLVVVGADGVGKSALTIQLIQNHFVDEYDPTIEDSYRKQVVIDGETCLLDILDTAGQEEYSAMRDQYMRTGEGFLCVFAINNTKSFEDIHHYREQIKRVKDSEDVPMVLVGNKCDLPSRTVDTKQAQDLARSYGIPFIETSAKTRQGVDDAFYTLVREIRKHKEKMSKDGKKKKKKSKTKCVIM
Assay: Protein-protein interaction inhibition between Kras and SOS1 (KrasGl2D-SOS PPI) using AlphaScreen
Type: binding
Conditions: AlphaScreen; biotin-tagged human Kras loaded with GDP, His-tagged human SOS1; read-out: KRAS G12D-SOS PPI IC50
Method in brief: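 Binding between SOS1 and Kras is detected as bead-proximity luminescence: illuminate Ni-conjugated donors (680 nm), collect 520-620 nm emission from streptavidin-conjugated acceptors; Kras carries biotin and GDP loaded after purification, SOS1 carries a His tag.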

`CC[C@H](C)[C@@H]1NC(=O)[C@H](CC(F)(F)F)N(C)C(=O)C[C@@H](C(=O)N2CCCC2)N(C)C(=O)[C@H](C2CCCCC2)N(C)C(=O)C2(CCCC2)NC(=O)[C@@H]2CCCN2C(=O)[C@H](CCc2cc(F)c(C(F)(F)F)c(F)c2)NC(=O)CN(C)C(=O)[C@H](Cc2ccc(C(F)(F)F)cc2)N(C)C(=O)CN(C)C(=O)CN(C)C1=O` [Compound 1244] ([NMeAbu(4,4,4-F3)]I[Sar][Sar][NMePhe(4-CF3)][Sar][hPhe(3,5-F2-4-CF3)]P[Ac5c][NMeChg][NMeD]-Pyrrolidide; lactam N-11) and `CC[C@H](C)[C@@H]1NC(=O)[C@H](CC(F)(F)F)N(C)C(=O)C[C@@H](C(=O)N2CCCC2)N(C)C(=O)[C@H](C2CCCCC2)N(C)C(=O)C2(CCCC2)NC(=O)[C@@H]2CC(F)(F)CN2C(=O)[C@H](CCc2ccc(C(F)(F)F)c(Cl)c2)NC(=O)CN(C)C(=O)[C@H](Cc2ccc(C)cc2)N(C)C(=O)CN(C)C(=O)CN(C)C1=O` [Compound 1245] ([NMeAbu(4,4,4-F3)]I[Sar][Sar][NMePhe(4-Me)][Sar][hPhe(3-Cl-4-CF3)][Pro(4,4-F2)][Ac5c][NMeChg][NMeD]-Pyrrolidide; lactam N-11) are within 1.5-fold of each other in IC50: 0.63 nM for the first, 0.54 nM for the second.

`CC[C@H](C)[C@@H]1NC(=O)[C@H](CC(C)C)N(C)C(=O)C[C@@H](C(=O)N2CCOC2)NC(=O)[C@H]([C@@H](C)CC)N(C)C(=O)C2(CCCC2)NC(=O)[C@@H]2CCCN2C(=O)[C@H](CCc2ccc(C(F)(F)F)c(Cl)c2)NC(=O)CN(C)C(=O)[C@H](CC2CCCCC2)N(C)C(=O)CN(C)C(=O)CN(C)C1=O` [Compound 1247] ([NMeL]I[Sar][Sar][NMeCha][Sar][hPhe(3-Cl-4-CF3)]P[Ac5c][NMeI]D-{Oxazolidin(3-yl)}; lactam N-11) and `CC[C@H](C)[C@@H]1NC(=O)[C@H](CC(C)C)N(C)C(=O)C[C@@H](C(=O)N2C3CCC2COC3)NC(=O)[C@H]([C@@H](C)CC)N(C)C(=O)C2(CCCC2)NC(=O)[C@@H]2CCCN2C(=O)[C@H](CCc2ccc(C(F)(F)F)c(Cl)c2)NC(=O)CN(C)C(=O)[C@H](CC2CCCCC2)N(C)C(=O)CN(C)C(=O)CN(C)C1=O` [Compound 1257] ([NMeL]I[Sar][Sar][NMeCha][Sar][hPhe(3-Cl-4-CF3)]P[Ac5c][NMeI]D-{3Oxa8azabicyclo(3.2.1)octane}; lactam N-11) are within 1.5-fold of each other in IC50: 4.8 nM for the first, 6.5 nM for the second.

First: CCCC[C@@H]1NC(=O)[C@H](Cc2cccc(I)c2F)NC(=O)CN(C)C(=O)[C@H](Cc2ccc(OC)cc2)N(C)C(=O)[C@@H]2CCN2C(=O)[C@H](C)N(C)C(=O)[C@H]([C@@H](C)CC)NC(=O)[C@H](CC)N(C)C(=O)C[C@@H](C(=O)N2CCCCC2)N(C)C(=O)[C@H](CC(C)C)NC(=O)C(C)(C)N(C)C1=O [Compound 1249] ([NMeAbu]I[NMeA][Aze][NMeY](Me)[Sar][X41][Nle][NMeAib]L[NMeD]-Piperidide; lactam N-11)
Second: CCCC[C@@H]1NC(=O)[C@H](Cc2cccc(F)c2F)NC(=O)CN(C)C(=O)[C@H](Cc2ccc(OC)cc2)N(C)C(=O)[C@@H]2CCN2C(=O)[C@H](C)N(C)C(=O)[C@H]([C@@H](C)CC)NC(=O)[C@H](CC)N(C)C(=O)C[C@@H](C(=O)N2CCCCC2)N(C)C(=O)[C@H](CC(C)C)NC(=O)C(C)(C)N(C)C1=O [Compound 1256] ([NMeAbu]I[NMeA][Aze][NMeY](Me)[Sar][X53][Nle][NMeAib]L[NMeD]-Piperidide; lactam N-11)
The IC50 of the first is 3.6-fold higher: 33 nM for the first, 9.1 nM for the second. The second is the more potent here.

`C#CC[C@@H]1NC(=O)[C@H](Cc2cccc(I)c2)NC(=O)CN(C)C(=O)[C@H](Cc2ccc(C(F)(F)F)cc2)N(C)C(=O)[C@@H]2CCN2C(=O)[C@H](C)N(C)C(=O)[C@H]([C@@H](C)CC)NC(=O)[C@H](CC(C)C)N(C)C(=O)C[C@@H](C(=O)N2CCCCC2)N(C)C(=O)[C@H](CC(C)C)NC(=O)C(C)(C)N(C)C1=O` [Compound 1258] ([NMeL]I[NMeA][Aze][NMePhe(4-CF3)][Sar][Phe(3-I)][Pra][NMeAib]L[NMeD]-Piperidide; lactam N-11) was tested, and the IC50 was 26 nM.
